Data on 5 molecules can be found in patent US4987129A, “Cephalosporin derivatives” (priority 1987, dated 1991).

SMILES strings stand for the structures. In brackets after ≈: the same amount, converted by molar mass. Counter-ions that a name gives are not always drawn. Like-named read-outs stand apart in the source and are kept apart here. Where only a bound is given, the exact number is not on record here.

For data set [1], the system named is Pseudomonas aeruginosa 5D58-1. The data set can be described thus: minimum inhibitory concentration (MIC). The conditions noted are these: 5D581, Tables 2A, 2B. It is filed as cell-based. The method, then:
(§1) The minimum inhibitory concentration (MIC) of the compounds obtained in the above Examples were measured according to the standard method of Japan Society of Chemotherapy.

Data set [2] deals with Citrobacter freundii 1R526. The data set can be described thus: minimum inhibitory concentration (MIC). In kind it is cell-based. Here is the method:
as §1

Data set [3] deals with Klebsiella pneumoniae 4at521. As to the kind of experiment: minimum inhibitory concentration (MIC). In kind it is cell-based. Particulars: Tables 2A, 2B. Here is the method: as §1
For data set [4], the system named is Enterobacter cloacae IV25. As to the kind of experiment: minimum inhibitory concentration (MIC). In kind it is cell-based. The method, then:
as §1

The subject of data set [5] is Citrobacter freundii 1U589. As to the kind of experiment: minimum inhibitory concentration (MIC). In kind it is cell-based. Here is the method:
as §1

The test system of data set [6] is Pseudomonas aeruginosa GN10362. As to the kind of experiment: minimum inhibitory concentration (MIC). In kind it is cell-based. The conditions noted are these: Tables 2A, 2B. Here is the method: as §1
Data set [7] concerns Citrobacter freundii 5D60-1. The data set can be described thus: minimum inhibitory concentration (MIC). In kind it is cell-based. Here is the method:
as §1

The test system of data set [8] is Citrobacter freundii GM7391. The data set can be described thus: minimum inhibitory concentration (MIC). It is filed as cell-based. The method, then:
as §1

For data set [9], the system named is Pseudomonas aeruginosa 4au542. As to the kind of experiment: minimum inhibitory concentration (MIC). Particulars: Tables 2A, 2B. In kind it is cell-based. The method, then:
as §1

For data set [10], the system named is Escherichia coli GN5482. The data set can be described thus: minimum inhibitory concentration (MIC). In kind it is cell-based. Particulars: Tables 2A, 2B. The method, then: as §1
For data set [11], the system named is Citrobacter freundii 1U592. The data set can be described thus: minimum inhibitory concentration (MIC). It is filed as cell-based. The method, then: as §1
The subject of data set [12] is Citrobacter freundii 1R524. The data set can be described thus: minimum inhibitory concentration (MIC). It is filed as cell-based. The method, then: as §1
For data set [13], the system named is Pseudomonas cepacia OF189. As to the kind of experiment: minimum inhibitory concentration (MIC). In kind it is cell-based. Particulars: Burkholderia cepacia, Tables 2A, 2B. Here is the method:
as §1

Data set [14] relates to Serratia marcescens GN10857. As to the kind of experiment: minimum inhibitory concentration (MIC). The conditions noted are these: Tables 2A, 2B. It is filed as cell-based. The method, then:
as §1

Data set [15] concerns Citrobacter freundii 1R523. As to the kind of experiment: minimum inhibitory concentration (MIC). In kind it is cell-based. Here is the method:
as §1

Data set [16] deals with Escherichia coli ML4704. As to the kind of experiment: minimum inhibitory concentration (MIC). It is filed as cell-based. Here is the method: as §1
Data set [17] concerns Enterobacter cloacae GN7471. The data set can be described thus: minimum inhibitory concentration (MIC). It is filed as cell-based. The method, then:
as §1

In data set [18] the test system is Proteus vulgris GN7919. The data set can be described thus: minimum inhibitory concentration (MIC). It is filed as cell-based. The method, then:
as §1

In data set [19] the test system is Citrobacter freundii GN7391. As to the kind of experiment: minimum inhibitory concentration (MIC). It is filed as cell-based. The method, then:
as §1

Data set [20] deals with Citrobacter freundii 1R527. As to the kind of experiment: minimum inhibitory concentration (MIC). In kind it is cell-based. Here is the method: as §1
The subject of data set [21] is Pseudomonas maltophilia OF247. As to the kind of experiment: minimum inhibitory concentration (MIC). It is filed as cell-based. Particulars: Stenotrophomonas maltophilia, Tables 2A, 2B. Here is the method: as §1
In data set [22] the test system is Enterobacter cloacae 908RN. The data set can be described thus: minimum inhibitory concentration (MIC). It is filed as cell-based. Here is the method:
as §1

Data set [23] has as its system Staphylococcus aureus Smith. The data set can be described thus: minimum inhibitory concentration (MIC), standard method of Japan Society of Chemotherapy. The conditions noted are these: Tables 2A, 2B. It is filed as cell-based. The method, then: as §1
A short description of data set [24]: in vivo. Also noted: species or system cynomolgus monkeys. Particulars: cynomolgus monkey, 20 mg/kg. The method, then: 20 mg/kg of compound obtained in the above Example 18 was administered parenterally to cynomolgus monkeys and the half-life in blood was measured.
The concentration of the compound was measured according to HPLC method. Novapack C18 or Microbondapack C18 (both trade name, produced by Waters Co.) was used for analysis. Further, cefpiramide was used as a control drug.

For data set [25] the following is noted: among existing cephalosporins; known; cited from earlier work.
Data set [26] concerns Enterobacter cloacae IY247. The data set can be described thus: minimum inhibitory concentration (MIC). In kind it is cell-based. The method, then: as §1
Data set [27] concerns Enterobacter cloacae 5D52-2. The data set can be described thus: minimum inhibitory concentration (MIC). It is filed as cell-based. The conditions noted are these: 5D522. The method, then: as §1
The subject of data set [28] is Staphylococcus aureus IAA498. The data set can be described thus: minimum inhibitory concentration (MIC). In kind it is cell-based. The conditions noted are these: Tables 2A, 2B. The method, then:
as §1

In data set [29] the test system is Enterobacter cloacae 5D83-2. As to the kind of experiment: minimum inhibitory concentration (MIC). It is filed as cell-based. Particulars: 5D832. Here is the method: as §1
Where [30] appears, read: Escherichia coli ML4704, Tables 2A, 2B, read-out: MIC.
Setting [31] is: Enterobacter cloacae 908RN, Tables 2A, 2B.
The mark [32] stands for this setting: Enterobacter cloacae GN7471, Tables 2A, 2B, read-out: MIC.
The mark [33] stands for this setting: Proteus vulgris GN7919, Tables 2A, 2B, read-out: MIC.
[34] abbreviates: Citrobacter freundii GN7391, Tables 2A, 2B, read-out: MIC.

The term MIC denotes the lowest concentration found to suppress growth. As a reminder, the half-life is how long it takes for the measured level to halve. Read a high half-life as slow decline.

As for `CC(C)(O/N=C(\C(=O)N[C@@H]1C(=O)N2C(C(=O)[O-])=C(C[n+]3ccccc3)CS[C@H]12)c1csc(N)n1)C(=O)O` [CAZ, ceftazidime, reference compound], the MIC came out at 1.56 µg/mL (≈ 2.85 µM) in data set [1]; 25 µg/mL (≈ 45.7 µM) in [2]; 0.1 µg/mL (≈ 0.183 µM) in [3]; 50 µg/mL (≈ 91.5 µM) in data set [4]; 100 µg/mL (≈ 183 µM) in data set [5]; 1.56 µg/mL (≈ 2.85 µM) in [6]. Also, the MIC in data set [7] (5D601) was > 100 µg/mL; in [8], > 100 µg/mL; in data set [9] it was 3.13 µg/mL (≈ 5.73 µM); in data set [10] it was 1.56 µg/mL (≈ 2.85 µM); in data set [11] it was 100 µg/mL (≈ 183 µM); in data set [12] it was 25 µg/mL (≈ 45.7 µM). Besides, the MIC in data set [13] stood at 6.25 µg/mL (≈ 11.4 µM); in [14] it was 3.13 µg/mL (≈ 5.73 µM); in [15] it was 25 µg/mL (≈ 45.7 µM); in data set [16] (setting [30]) it was 0.05 µg/mL (≈ 0.0915 µM); in [17] (Enterobacter cloacae, GN7471) it was 3.13 µg/mL (≈ 5.73 µM); in [18], 1.56 µg/mL (≈ 2.85 µM). For the same molecule, the MIC was > 100 µg/mL in data set [19] (Citrobacter freundii, GN7391); 25 µg/mL (≈ 45.7 µM) in data set [20]; 3.13 µg/mL (≈ 5.73 µM) in data set [21]; > 100 µg/mL in data set [22] (Enterobacter cloacae 908RN, Table 3, clinical isolates resistant to ceftazidime); 100 µg/mL (≈ 183 µM) in [22] (setting [31]); 6.25 µg/mL (≈ 11.4 µM) in [23].

As to `Cc1cc(O)c(C(=O)N[C@@H](C(=O)N[C@@H]2C(=O)N3C(C(=O)O)=C(CSc4nnnn4C)CS[C@H]23)c2ccc(O)cc2)cn1` [Cefpiramide, cefpiramide, reference compound], the half-life in data set [24] was 2.5 h. The half-life in blood result in data set [25] is on record as “long half-life in blood”.

Take `Cc1cc(SCC2=C(C(=O)O)N3C(=O)C(NC(=O)C(=NOC(C)(C)C(=O)NNC(=O)c4ccc(O)c(O)c4)c4csc(N)n4)C3SC2)n2nc(CO)nc2n1` (stereo not shown) [Example 18, 7-{2-[2-amino-1,3-thiazol-4-yl]-2-[1-(3-(3,4-dihydroxybenzoyl)carbazoyl)-1-methylethoxyimino]acetamide}-3-[(2-hydroxymethyl-5-methyl-s-triazolo[1,5-a]pyrimidin-7-yl)thiomethyl]-3-cephem-4-carboxylic acid.sodium salt]: the MIC in data set [1] worked out at 0.05 µg/mL; in data set [26] it was 6.25 µg/mL; in [2] (read-out: MIC), 0.39 µg/mL; in [3] it was 0.012 µg/mL; in data set [4] (read-out: MIC), 1.56 µg/mL; in [5] (read-out: MIC), 1.56 µg/mL. In addition, the MIC is 0.05 µg/mL in data set [6]; 1.56 µg/mL in data set [7] (5D601, read-out: MIC); 6.25 µg/mL in data set [8] (read-out: MIC); 0.2 µg/mL in [9]; 0.025 µg/mL in data set [10]; 25 µg/mL in data set [11] (read-out: MIC). The minimal inhibitory concentration (MIC) was 0.39 µg/mL in data set [12] (read-out: MIC); 0.025 µg/mL in data set [13]; 0.78 µg/mL in [14]; 0.78 µg/mL in data set [15] (read-out: MIC); 0.39 µg/mL in data set [27]; 0.012 µg/mL in [16] (setting [30]). The MIC in [17] (setting [32]) worked out at 6.25 µg/mL; in data set [18] (setting [33]) it was 1.56 µg/mL; in [19] (setting [34]) it was 12.5 µg/mL; in data set [28], 6.25 µg/mL; in [20] (read-out: MIC), 0.2 µg/mL; in data set [29], 0.78 µg/mL. Further, the minimum inhibitory concentration (MIC) is 0.39 µg/mL in data set [21]; 12.5 µg/mL in data set [22] (Enterobacter cloacae 908RN, Table 3, clinical isolates resistant to ceftazidime, read-out: MIC); 6.25 µg/mL in data set [22] (Enterobacter cloacae 908RN, Tables 2A, 2B, read-out: MIC); 1.56 µg/mL in data set [23]. The half-life in data set [24] was 2.6 h.

Take `Cc1cc(SCC2=C(C(=O)[O-])N3C(=O)C(NC(=O)C(=NOC(C)(C)C(=O)NN=Cc4ccc(O)c(O)c4)c4csc(N)n4)[C@H]3SC2)n2nc(CO)nc2n1.[Na+]` (stereo partly shown) [Example 44, sodium 7-{2-[2-amino-1,3-thiazol-4-yl]-2-[1-(3-(3,4-dihydroxybenzylidene)carbazoyl)-1-methylethoxyimino]acetamido}-3-[(2-hydroxymethyl-5-methyl-s-triazolo[1,5-a]pyrimidin-7-yl)thiomethyl]-3-cephem-4-carboxylate]: the minimal inhibitory concentration (MIC) in data set [1] worked out at 0.39 µg/mL; in data set [3], 0.39 µg/mL; in [6], 0.78 µg/mL; in data set [9], 0.78 µg/mL; in [10], 0.1 µg/mL; in data set [13], 0.2 µg/mL. Moreover, the minimum inhibitory concentration (MIC) in [14] was found to be 0.78 µg/mL; in data set [16] (Escherichia coli, ML4704), 0.39 µg/mL; in data set [17] (Enterobacter cloacae, GN7471), 1.56 µg/mL; in data set [18], 12.5 µg/mL; in data set [19] (Citrobacter freundii, GN7391), 12.5 µg/mL; in [28] it was 6.25 µg/mL. Further, the MIC stood at 12.5 µg/mL in data set [21], 12.5 µg/mL in data set [22] and 3.13 µg/mL in [23].

`COCc1nc2nc(C)cc(SCC3=C(C(=O)O)N4C(=O)C(NC(=O)C(=NOC(C)(C)C(=O)NN)c5csc(N)n5)C4SC3)n2n1` (stereo not shown) [Example 47]: the MIC in data set [1] is 50 µg/mL (≈ 72.3 µM); in data set [3] it was 6.25 µg/mL (≈ 9.03 µM); in [6], 50 µg/mL (≈ 72.3 µM); in data set [9], > 100 µg/mL; in data set [10], 0.78 µg/mL (≈ 1.13 µM); in data set [13] it was 100 µg/mL (≈ 145 µM). The MIC is 100 µg/mL (≈ 145 µM) in data set [14]; 0.2 µg/mL (≈ 0.289 µM) in [16] (setting [30]); 50 µg/mL (≈ 72.3 µM) in data set [17] (setting [32]); 50 µg/mL (≈ 72.3 µM) in data set [18] (setting [33]); > 100 µg/mL in data set [19] (setting [34]); 12.5 µg/mL (≈ 18.1 µM) in [28]. The minimal inhibitory concentration (MIC) is 100 µg/mL (≈ 145 µM) in [21], > 100 µg/mL in data set [22] (setting [31]) and 6.25 µg/mL (≈ 9.03 µM) in data set [23].
